Measured values as given in patent US9072778B2, “Treatment regimen for N-MYC, c-MYC, and L-MYC amplified and overexpressed tumors” (UNIVERSITY OF HAWAII, priority 2005, dated 2015).

Columns and labels:
[1] = tested on: LAN-1 cells; test: Cell cycle phase distribution (propidium iodide), LAN-1; assay type: cell-based, human; conditions: DFMO = 5 mM, SAM486A = 10 μM, Spd = 10 μM, mean ± SD
Description: This profile, which is typical for cell cycle arrest at G1, was enhanced by the combination of both inhibitors, with the majority of cells in G1 (˜71-73%), a reduced number of cells in S phase (˜20-28%), and a small portion in G2/M (˜2-7%).
Human NB cell lines were provided by Dr. Robert Seeger (LAN-1; University of California, Los Angeles, Calif.), Dr. Nai-Kong Cheung (NMB-7; Memorial Sloan-Kettering Cancer Center, NY), and the American Type Culture Collection (SK-N-SH; ATCC, Manassas, Va.). Cells were maintained in RPMI 1640 (Biosource, Rockeville, Md.) containing 10% heat-inactivated fetal bovine serum (FBS) (Invitrogen, Carlsbad, Calif.), penicillin (100 IU/ml) and streptomycin (100 μg/ml). If cells were treated with exogenous Spd, 1 mM of aminoguanidine was included as an inhibitor of serum polyamine oxidation. […] For growth and proliferation inhibition, polyamine pool, and cell cycle studies, 10 μM Spd was added together with inhibitors, and cells were assayed on days 2 and/or 3.

[2] = tested on: human ovarian cancer cells (SKOV-3); test: Growth, proliferation and morphology of ovarian cancer cells; assay type: cell-based; conditions: DFMO or SAM486A
Description: (Bachmann, A S, (2004) Hawaii Med. Journal, 63:371-373, which is incorporated herein by reference in its entirety). […] Micrographs were taken using an inverted phase contrast microscope (Nikon). In comparison with the ovarian cancer cells SKOV-3, the growth and proliferation of NB cells LAN-1 was inhibited much more drastically and caused significant morphological changes after only 3 days of treatment.
Similar effects were already apparent after 1-2 days (not shown). By comparison, the treatment of human melanoma cells (MALME-3) with polyamine inhibitors required more extensive incubation times (8-12 days) and led to less obvious rearrangements in cell structures (Kramer et al., (2001). Cancer Res, 61, 7754-62, which is incorporate herein by reference in its entirety).

[3] = tested on: p27^Kip1; test: Western blot of p27Kip1 in inhibitor-treated NB cells; assay type: cell-based, human; conditions: LAN-1 and NMB-7; 5 mM DFMO, 10 μM SAM486A; days 2 and 3, relative to untreated control
Protocol: To further investigate the mechanism that regulates G1 arrest in LAN-1 and NMB-7 cells, and to define the changes in associated protein responses, the cell cycle-related proteins p21^Waf1/Cip1, p27^Kip1, p53, Rb, and MYCN in NB cell lysates were studied. Cells were analyzed on days 1, 2, and 3. Equal amounts of total protein were loaded in all experiments. Proteins were scanned and the ratio of hypophosphorylated Rb (pRb) (lower band):hyperphosphorylated Rb (ppRb) (upper band) was calculated (b). MYCN bands were quantified and normalized relative to β-actin. Values are presented as percentage (%) of controls of day 1, 2 or 3. (c). The data are representative of at least three independent experiments. […] To test for the presence of the cdk inhibitor protein p21^Waf1/Cip1, identical experiments were conducted, but the protein could not be detected (not shown). Low levels of p21^Waf1/Cip1 in NB cells have been previously described (McKenzie et al., (2003). Cancer Res, 63, 3840-4, which is incorporated herein by reference in its entirety). Similarly, the tumor suppressor protein p53 was not detected (not shown), which is in agreement with previous findings that cell lines LAN-1 and NMB-7 are p53 deficient. In contrast, p53 was readily expressed in identical Western blot control experiments and detected by immunofluorescence using the p53 wild type cell line SK-N-SH (not shown).

[4] = tested on: MYCN; test: Western blot of MYCN in inhibitor-treated NB cells; assay type: cell-based, human; conditions: LAN-1 and NMB-7; 5 mM DFMO, 10 μM SAM486A (FIG. 7c)
Description: It has also been shown that MYCN can regulate p27^Kip1 in NB cells by targeting p27^Kip1 to the proteasome (Nakamura et al., (2003) Cell Death Differ, 10, 230-9, which is incorporated herein by reference in its entirety), and it is therefore possible that the observed increase in p27^Kip1 is in response to a decrease in MYCN. […] The regulation of ODC by MYCN has been previously proposed (Ben-Yosef et al., (1998) Oncogene, 17, 165-71; Lu et al., (2003) Cancer Lett, 197, 125-30; Lutz et al., (1996) Oncogene, 13, 803-12, each of which is incorporated herein by reference in its entirety), but has not been definitively confirmed. The precise mechanism by which polyamines regulate MYCN in NB cells remains to be further clarified.
To further investigate the mechanism that regulates G1 arrest in LAN-1 and NMB-7 cells, and to define the changes in associated protein responses, the cell cycle-related proteins p21^Waf1/Cip1, p27^Kip1, p53, Rb, and MYCN in NB cell lysates were studied. Cells were analyzed on days 1, 2, and 3. Equal amounts of total protein were loaded in all experiments. Proteins were scanned and the ratio of hypophosphorylated Rb (pRb) (lower band):hyperphosphorylated Rb (ppRb) (upper band) was calculated (b). MYCN bands were quantified and normalized relative to β-actin. Values are presented as percentage (%) of controls of day 1, 2 or 3. (c). […]

| SMILES | Cell cycle G1 ([1]; LAN-1, day 2) [% TOTAL CELLS] | Cell cycle G2/M ([1]; LAN-1, day 2) [% TOTAL CELLS] | Cell cycle S ([1]; LAN-1, day 2) [% TOTAL CELLS] | Cell cycle G1 ([1]; LAN-1, day 3) [% TOTAL CELLS] | Cell cycle G2/M ([1]; LAN-1, day 3) [% TOTAL CELLS] | Cell cycle S ([1]; LAN-1, day 3) [% TOTAL CELLS] | cell morphology [2] | p27^Kip1 protein levels [3] | MYCN protein [4] |
| --- | --- | --- | --- | --- | --- | --- | --- | --- | --- |
| NCCC[C@](N)(C(=O)O)C(F)F [DFMO, α-difluoromethylornithine] | 62.1 ± 10.4 | 11.5 ± 3.0 | 26.4 ± 7.5 | 63.1 ± 12.2 | 6.2 ± 4.1 | 30.8 ± 8.2 | no visible changes in cell morphology | increased endogenous levels of cdk inhibitor protein p27^Kip1 | strong downregulation |
| N=C(N)c1cccc2c1CC/C2=N\N=C(N)N [SAM486A, 4-amidinoindan-1-one 2′-amidinohydrazone] | 58.7 ± 8.3 | 9.6 ± 3.2 | 31.7 ± 6.8 | 53.3 ± 5.1 | 9.3 ± 2.0 | 37.4 ± 3.5 | no visible changes in cell morphology | did not alter p27^Kip1 levels | almost no effect |
